Consider two compounds from PMC2964380 (Bioorganic & medicinal chemistry, 2010).

Like-named read-outs stand apart in the source and are kept apart here.

Test [1] has as its system HIV-1 (IIIB). The conditions noted are these: MT-2 cell culture, MTT assay; cited from earlier work. For orientation: Tetrazolium dyes change colour on reduction, which living cells bring about.
For test [2], the system named is HIV-1 (IIIB). Nature of the test: Inhibition of HIV-1. In kind it is cell-based. The conditions noted are these: Human immunodeficiency virus 1, IIIB, MT2, 120 h, read-out: Cell-Culture EC50.

Regarding `Cc1cn([C@H]2C=C[C@@H](CO)O2)c(=O)[nH]c1=O` [d4T], the EC50 (commonly the concentration that produces a half-maximal response) in the test with HIV-1 (IIIB) [1] was 2000 nM. With `COc1ccc(OC)c(CCNC(=S)Nc2ccc(Br)cn2)c1` [HI-236], the 50% effective concentration (EC50) in the test with HIV-1 (IIIB) [2] is 42 nM.
